# In US8796268B2, “Heteroaryls and uses thereof” (Millennium Pharmaceuticals, Inc., priority 2010, dated 2014):
# Columns and labels:
# Assay type in all cases: biochemical
# Human PI3K beta = target: T1, Human PI3K beta (Homo sapiens, UniProt P42338); test: Human PI3K beta enzyme assay (HTRF); settings: concentration not given, b1387 states 1.1 μM for PI3K α and β; for inhibition at 1.1 µM: read-out: p110 beta Percent Inhibition
# T1 construct: His (N); host or cells: SF9 insect cells (baculovirus)
# Method in brief: (§1)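 Compounds were mixed with 25 uM ATP, then with 3.5 uM di-C8 PI(4,5)P2 and His-tagged PI3K isoform (β 5.25 nM, δ 0.75 nM, γ 5 nM) at pH 7.00. After 30 min at room temperature, EDTA stopped the reaction and PIP3 was measured by HTRF over 1 h.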
# Human PI3K gamma = target: T2, Human PI3K gamma (Homo sapiens, UniProt P48736); test: Human PI3K gamma enzyme assay (HTRF); settings: concentration not given, b1389 states 1.0 μM for PI3K δ and γ; for inhibition at 1 µM: read-out: p110 gamma Percent Inhibition
# T2 construct: His (N); host or cells: SF9 insect cells (baculovirus)
# Method in brief: as §1
# Human PI3K alpha = target: T3, Human PI3K alpha (Homo sapiens, UniProt P42336); test: Human PI3K alpha enzyme assay (HTRF); settings: concentration not given, b1387 states 1.1 μM for PI3K α and β; for inhibition at 1.1 µM: read-out: p110 alpha Percent Inhibition
# T3 construct: His (N); host or cells: SF9 insect cells (baculovirus)
# Human PI3K delta = target: T4, Human PI3K delta (Homo sapiens, UniProt O00329); test: Human PI3K delta enzyme assay (HTRF); settings: concentration not given, b1389 states 1.0 μM for PI3K δ and γ; for inhibition at 1 µM: read-out: p110 delta Percent Inhibition
# T4 construct: His (N); host or cells: SF9 insect cells (baculovirus)
# Method in brief: as §1
# T1 sequence (P42338 whole entry): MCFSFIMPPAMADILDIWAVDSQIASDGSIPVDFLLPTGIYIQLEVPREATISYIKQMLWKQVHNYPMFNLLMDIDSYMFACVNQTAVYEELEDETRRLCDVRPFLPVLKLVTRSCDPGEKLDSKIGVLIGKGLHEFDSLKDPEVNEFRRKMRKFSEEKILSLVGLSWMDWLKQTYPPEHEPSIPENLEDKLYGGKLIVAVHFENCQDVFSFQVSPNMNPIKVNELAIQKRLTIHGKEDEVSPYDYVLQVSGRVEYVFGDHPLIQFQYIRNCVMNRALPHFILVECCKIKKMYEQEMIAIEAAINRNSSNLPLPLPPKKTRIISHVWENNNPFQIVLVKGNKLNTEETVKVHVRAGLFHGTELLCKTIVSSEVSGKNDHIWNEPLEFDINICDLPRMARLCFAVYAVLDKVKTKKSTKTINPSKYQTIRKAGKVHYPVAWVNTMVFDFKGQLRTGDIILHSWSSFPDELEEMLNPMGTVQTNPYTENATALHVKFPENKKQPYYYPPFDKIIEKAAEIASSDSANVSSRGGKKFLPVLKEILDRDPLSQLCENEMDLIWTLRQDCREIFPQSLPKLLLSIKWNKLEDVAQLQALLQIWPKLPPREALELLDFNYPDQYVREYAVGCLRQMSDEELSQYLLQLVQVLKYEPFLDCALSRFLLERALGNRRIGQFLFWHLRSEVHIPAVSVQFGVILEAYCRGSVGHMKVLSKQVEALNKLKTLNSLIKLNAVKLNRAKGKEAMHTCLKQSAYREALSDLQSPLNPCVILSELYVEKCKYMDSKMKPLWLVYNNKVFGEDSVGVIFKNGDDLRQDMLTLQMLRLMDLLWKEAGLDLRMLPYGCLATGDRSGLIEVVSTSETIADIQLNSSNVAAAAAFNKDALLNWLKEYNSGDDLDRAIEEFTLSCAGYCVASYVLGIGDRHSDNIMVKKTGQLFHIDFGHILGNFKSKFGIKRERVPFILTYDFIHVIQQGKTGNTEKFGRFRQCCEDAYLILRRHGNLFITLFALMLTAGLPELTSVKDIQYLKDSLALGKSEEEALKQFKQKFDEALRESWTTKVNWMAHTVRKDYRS
# T1 sequence (P27986 whole entry partner): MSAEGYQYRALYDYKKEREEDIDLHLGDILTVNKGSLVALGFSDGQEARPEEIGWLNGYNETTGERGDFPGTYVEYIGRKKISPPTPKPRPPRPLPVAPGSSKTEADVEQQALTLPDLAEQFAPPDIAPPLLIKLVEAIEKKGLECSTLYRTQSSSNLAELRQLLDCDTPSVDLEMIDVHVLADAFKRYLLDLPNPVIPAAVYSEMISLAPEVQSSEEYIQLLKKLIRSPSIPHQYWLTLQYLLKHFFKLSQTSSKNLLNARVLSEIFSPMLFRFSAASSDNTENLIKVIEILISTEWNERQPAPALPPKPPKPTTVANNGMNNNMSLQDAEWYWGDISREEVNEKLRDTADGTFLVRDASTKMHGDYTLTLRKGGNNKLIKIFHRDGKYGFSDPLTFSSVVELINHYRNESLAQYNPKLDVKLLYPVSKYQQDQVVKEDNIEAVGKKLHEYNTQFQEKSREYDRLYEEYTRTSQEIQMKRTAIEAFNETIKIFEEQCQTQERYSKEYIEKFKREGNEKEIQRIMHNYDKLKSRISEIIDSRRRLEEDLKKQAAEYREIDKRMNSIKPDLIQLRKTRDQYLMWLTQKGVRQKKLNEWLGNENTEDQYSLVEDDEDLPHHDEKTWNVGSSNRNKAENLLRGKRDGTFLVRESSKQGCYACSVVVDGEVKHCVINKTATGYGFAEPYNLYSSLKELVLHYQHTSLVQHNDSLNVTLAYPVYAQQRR
# T2 sequence (P48736 whole entry): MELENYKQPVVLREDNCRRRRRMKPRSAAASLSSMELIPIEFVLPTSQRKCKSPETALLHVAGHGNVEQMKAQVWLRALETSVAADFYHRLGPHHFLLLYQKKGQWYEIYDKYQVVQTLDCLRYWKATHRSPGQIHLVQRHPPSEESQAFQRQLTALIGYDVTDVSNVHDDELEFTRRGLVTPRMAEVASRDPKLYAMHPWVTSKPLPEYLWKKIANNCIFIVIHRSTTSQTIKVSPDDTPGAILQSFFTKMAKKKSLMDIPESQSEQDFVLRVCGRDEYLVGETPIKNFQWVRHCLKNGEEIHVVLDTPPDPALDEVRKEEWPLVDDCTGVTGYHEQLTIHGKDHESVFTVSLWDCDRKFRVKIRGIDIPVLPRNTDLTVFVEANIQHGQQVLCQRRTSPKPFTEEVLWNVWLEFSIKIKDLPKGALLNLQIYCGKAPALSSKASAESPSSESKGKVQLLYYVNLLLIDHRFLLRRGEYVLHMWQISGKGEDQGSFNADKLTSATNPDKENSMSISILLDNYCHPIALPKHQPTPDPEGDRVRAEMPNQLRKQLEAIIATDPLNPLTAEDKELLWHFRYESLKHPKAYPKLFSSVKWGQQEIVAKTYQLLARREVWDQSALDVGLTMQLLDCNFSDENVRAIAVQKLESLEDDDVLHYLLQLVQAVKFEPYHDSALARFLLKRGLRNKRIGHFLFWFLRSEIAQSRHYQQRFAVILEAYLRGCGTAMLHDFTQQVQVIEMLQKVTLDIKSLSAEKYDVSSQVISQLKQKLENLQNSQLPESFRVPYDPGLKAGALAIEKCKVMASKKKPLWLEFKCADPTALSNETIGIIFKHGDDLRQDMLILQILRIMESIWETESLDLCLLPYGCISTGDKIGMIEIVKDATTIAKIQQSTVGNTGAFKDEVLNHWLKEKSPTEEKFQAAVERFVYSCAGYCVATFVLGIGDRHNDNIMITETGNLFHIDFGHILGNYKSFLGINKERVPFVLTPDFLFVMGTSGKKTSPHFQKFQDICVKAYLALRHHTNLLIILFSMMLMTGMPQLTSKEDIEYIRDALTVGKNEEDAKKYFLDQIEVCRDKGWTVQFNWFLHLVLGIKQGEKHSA
# T3 sequence (P42336 whole entry): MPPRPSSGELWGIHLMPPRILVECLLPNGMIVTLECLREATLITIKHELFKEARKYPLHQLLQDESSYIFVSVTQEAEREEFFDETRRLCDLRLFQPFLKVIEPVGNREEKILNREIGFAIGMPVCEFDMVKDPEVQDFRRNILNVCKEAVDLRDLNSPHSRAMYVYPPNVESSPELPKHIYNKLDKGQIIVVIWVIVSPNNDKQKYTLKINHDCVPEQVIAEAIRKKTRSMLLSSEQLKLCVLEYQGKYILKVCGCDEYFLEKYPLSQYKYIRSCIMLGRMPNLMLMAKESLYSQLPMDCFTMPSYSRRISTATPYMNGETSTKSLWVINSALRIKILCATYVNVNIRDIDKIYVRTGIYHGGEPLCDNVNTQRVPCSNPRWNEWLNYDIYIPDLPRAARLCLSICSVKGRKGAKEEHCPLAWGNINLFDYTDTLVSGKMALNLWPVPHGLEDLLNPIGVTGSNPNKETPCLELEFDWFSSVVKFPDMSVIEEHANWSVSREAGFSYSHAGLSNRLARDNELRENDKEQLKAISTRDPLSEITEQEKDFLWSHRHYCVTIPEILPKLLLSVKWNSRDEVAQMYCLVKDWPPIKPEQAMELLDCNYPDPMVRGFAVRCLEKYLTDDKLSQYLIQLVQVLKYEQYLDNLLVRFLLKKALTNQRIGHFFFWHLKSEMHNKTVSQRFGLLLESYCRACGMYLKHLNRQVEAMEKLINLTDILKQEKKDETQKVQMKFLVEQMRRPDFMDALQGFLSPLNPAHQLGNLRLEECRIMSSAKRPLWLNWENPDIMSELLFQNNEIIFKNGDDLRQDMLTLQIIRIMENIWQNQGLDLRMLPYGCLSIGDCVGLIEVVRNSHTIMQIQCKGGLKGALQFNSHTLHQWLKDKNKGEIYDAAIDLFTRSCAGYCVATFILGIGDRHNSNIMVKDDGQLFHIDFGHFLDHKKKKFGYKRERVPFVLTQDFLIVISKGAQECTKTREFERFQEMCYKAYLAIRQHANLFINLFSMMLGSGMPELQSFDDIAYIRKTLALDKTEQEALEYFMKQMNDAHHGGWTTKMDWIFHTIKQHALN
# T3 sequence (P27986 whole entry partner): as the sequence (P27986 whole entry partner) above
# T4 sequence (O00329 whole entry): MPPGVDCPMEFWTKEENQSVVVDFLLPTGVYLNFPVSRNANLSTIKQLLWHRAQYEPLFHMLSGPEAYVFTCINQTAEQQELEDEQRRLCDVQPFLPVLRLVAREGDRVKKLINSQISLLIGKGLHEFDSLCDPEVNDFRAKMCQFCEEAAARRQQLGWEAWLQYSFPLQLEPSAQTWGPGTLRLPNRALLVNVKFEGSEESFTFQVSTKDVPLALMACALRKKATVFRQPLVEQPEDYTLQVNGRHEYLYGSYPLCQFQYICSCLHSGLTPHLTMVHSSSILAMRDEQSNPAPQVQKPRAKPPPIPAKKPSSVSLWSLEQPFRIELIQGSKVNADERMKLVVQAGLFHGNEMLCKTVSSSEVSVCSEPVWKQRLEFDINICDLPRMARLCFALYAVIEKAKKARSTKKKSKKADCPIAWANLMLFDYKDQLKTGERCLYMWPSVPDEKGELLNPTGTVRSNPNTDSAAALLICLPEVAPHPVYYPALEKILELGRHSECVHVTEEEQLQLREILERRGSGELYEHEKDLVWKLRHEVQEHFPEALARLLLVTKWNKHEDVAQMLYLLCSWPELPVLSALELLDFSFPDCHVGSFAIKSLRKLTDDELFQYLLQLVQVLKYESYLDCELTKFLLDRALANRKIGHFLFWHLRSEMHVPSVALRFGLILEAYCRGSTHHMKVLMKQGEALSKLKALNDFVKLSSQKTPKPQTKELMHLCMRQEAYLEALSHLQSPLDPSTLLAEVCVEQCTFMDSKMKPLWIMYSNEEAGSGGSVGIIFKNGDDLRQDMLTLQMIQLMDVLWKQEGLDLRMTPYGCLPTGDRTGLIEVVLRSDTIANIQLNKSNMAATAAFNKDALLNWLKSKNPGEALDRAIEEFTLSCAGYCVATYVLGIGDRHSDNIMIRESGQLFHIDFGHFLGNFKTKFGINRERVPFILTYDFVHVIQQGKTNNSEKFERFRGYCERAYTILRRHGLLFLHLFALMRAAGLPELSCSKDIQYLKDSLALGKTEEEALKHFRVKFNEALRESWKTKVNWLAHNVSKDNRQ
# T4 sequence (P27986 whole entry partner): as the sequence (P27986 whole entry partner) above
inhibition at 1.1 µM (Human PI3K beta) [%],inhibition at 1 µM (Human PI3K gamma) [%],inhibition at 1.1 µM (Human PI3K alpha) [%],inhibition at 1 µM (Human PI3K delta) [%],p110 beta Percent Inhibition (Human PI3K beta) [%],p110 gamma Percent Inhibition (Human PI3K gamma) [%],p110 alpha Percent Inhibition (Human PI3K alpha) [%],p110 delta Percent Inhibition (Human PI3K delta) [%],Compound
74,6,37,37,–,–,–,–,OC(c1ccc(Br)o1)c1cc(-c2ccncc2)sc1-c1nnc[nH]1 (stereo not drawn) [Compound 260]
69,4,0,12,–,–,–,–,"O=C(O)c1cc(-c2sc(-c3ccncc3)nc2Cc2ccc(Cl)cc2)[nH]n1 [Compound 262, 5-(4-(4-chlorobenzyl)-2-(pyridin-4-yl)thiazol-5-yl)-1H-pyrazole-3-carboxylic acid]"
105,43,48,84,–,–,–,–,OC(c1cnc2ccccc2n1)c1cc(-c2ccncc2)sc1-c1nnc[nH]1 (stereo not drawn) [Compound 263]
99,28,32,100,–,–,–,–,COc1ccc(C(O)c2cc(-c3ccncc3)sc2-c2nnc[nH]2)c(F)c1 (stereo not drawn) [Compound 264]
–,–,–,–,109,64,64,111,COc1cc(C(O)c2cc(-c3ccnc(C)c3)sc2-c2nnc[nH]2)c(F)cc1Cl (stereo not drawn) [Compound 265]
90,8,36,52,–,–,–,–,OC(c1cc(F)ccc1F)c1cc(-c2ccncc2)sc1-c1nnc[nH]1 (stereo not drawn) [Compound 266]
113,43,100,111,–,–,–,–,CC(=O)Nc1cc(-c2cc(C(c3ccc(Cl)cc3)N3CCN(C)CC3)c(-c3nnc[nH]3)s2)ccn1 (stereo not drawn) [Compound 267]
95,16,82,102,–,–,–,–,CC(=O)Nc1cc(-c2cc(C(c3ccc(Cl)cc3)N3CCC[C@@H]3CO)c(-c3nnc[nH]3)s2)ccn1 (stereo partly drawn) [Compound 268]
100,15,72,101,–,–,–,–,CC(=O)Nc1cc(-c2cc(C(c3ccc(Cl)cc3)N3CC[C@H](CO)C3)c(-c3nnc[nH]3)s2)ccn1 (stereo partly drawn) [Compound 269]
114,24,81,111,–,–,–,–,CC(=O)Nc1cc(-c2cc(C(c3ccc(Cl)cc3)N3CC(CCN)C3)c(-c3nnc[nH]3)s2)ccn1 (stereo not drawn) [Compound 270]
82,8,35,63,–,–,–,–,Cc1ccc(C(O)c2cc(-c3ccncc3)sc2-c2nnc[nH]2)s1 (stereo not drawn) [Compound 271]
96,10,70,70,–,–,–,–,COc1ccc(C(O)c2cc(-c3ccncc3)sc2-c2nnc[nH]2)cn1 (stereo not drawn) [Compound 272]
73,7,88,98,–,–,–,–,CC(=O)Nc1cc(-c2cc(C(O)(C3=CCOCC3)c3ccc(Cl)cc3)c(-c3nnc[nH]3)s2)ccn1 (stereo not drawn) [Compound 273]
109,38,98,107,–,–,–,–,CC(=O)Nc1cc(-c2cc(C(c3ccc(Cl)cc3)N(C)C3CNC3)c(-c3nnc[nH]3)s2)ccn1 (stereo not drawn) [Compound 274]
47,14,17,44,–,–,–,–,OC(c1cc(-c2ccncc2)sc1-c1nnc[nH]1)c1c(F)cccc1Cl (stereo not drawn) [Compound 275]

# Continued, compound first:
Compound,inhibition at 1.1 µM (Human PI3K beta) [%],inhibition at 1 µM (Human PI3K gamma) [%],inhibition at 1.1 µM (Human PI3K alpha) [%],inhibition at 1 µM (Human PI3K delta) [%],p110 beta Percent Inhibition (Human PI3K beta) [%],p110 gamma Percent Inhibition (Human PI3K gamma) [%],p110 alpha Percent Inhibition (Human PI3K alpha) [%],p110 delta Percent Inhibition (Human PI3K delta) [%]
OC(c1cc(-c2ccncc2)sc1-c1nnc[nH]1)c1cccc2ccccc12 (stereo not drawn) [Compound 228],94,11,24,57,–,–,–,–
CC(=O)Nc1cc(-c2nc(C(c3ccc(Cl)cc3)N3CCNCC3)c(-c3nnc[nH]3)s2)ccn1 (stereo not drawn) [Compound 229],105,16,62,106,–,–,–,–
CC(=O)Nc1cc(-c2cc(C(c3ccc(Cl)cc3)N3CCCC3)c(-c3nnc[nH]3)s2)ccn1 (stereo not drawn) [Compound 230],93,29,57,102,–,–,–,–
OC(c1ccc(Br)cc1)c1cc(-c2ccncc2)sc1-c1nnc[nH]1 (stereo not drawn) [Compound 231],104,47,34,77,–,–,–,–
OC(c1ccc(Cl)c(F)c1)c1cc(-c2ccncc2)sc1-c1nnc[nH]1 (stereo not drawn) [Compound 232],105,26,38,67,–,–,–,–
CC(=O)Nc1cc(-c2cc(C(NCC3CCNC3)c3ccc(Cl)cc3)c(-c3nnc[nH]3)s2)ccn1 (stereo not drawn) [Compound 234],100,10,60,104,–,–,–,–
OC(c1cc(-c2ccncc2)sc1-c1nnc[nH]1)c1cccc(F)c1F (stereo not drawn) [Compound 235],101,17,65,66,–,–,–,–
OC(c1ccc(-c2cncnc2)cc1)c1cc(-c2ccncc2)sc1-c1nnc[nH]1 (stereo not drawn) [Compound 236],53,10,11,48,–,–,–,–
CC(=O)Nc1cc(-c2nc(C(O)c3ccc(Cl)cc3)c(-c3nnc[nH]3)s2)ccn1 (stereo not drawn) [Compound 238],88,11,72,96,–,–,–,–
COc1cccc(F)c1C(O)c1cc(-c2ccncc2)sc1-c1nnc[nH]1 (stereo not drawn) [Compound 239],68,27,30,41,–,–,–,–
CC(=O)Nc1cc(-c2cc(C(NCC3CCCC3)c3ccc(Cl)cc3)c(-c3nnc[nH]3)s2)ccn1 (stereo not drawn) [Compound 240],79,8,52,98,–,–,–,–
CC(=O)Nc1cc(-c2cc(C(OC[C@@H]3CCCN3)c3ccc(Cl)cc3)c(-c3nnc[nH]3)s2)ccn1 (stereo partly drawn) [Compound 242],104,36,81,112,–,–,–,–
CCN(CC)C(c1ccc(Cl)cc1)c1cc(-c2ccnc(Cl)c2)sc1-c1nnc[nH]1 (stereo not drawn) [Compound 243],66,4,12,45,–,–,–,–
CC(=O)Nc1cc(-c2cc(C(NC(C)C)c3ccc(Cl)cc3)c(-c3nnc[nH]3)s2)ccn1 (stereo not drawn) [Compound 244],101,14,77,101,–,–,–,–
COc1ccc(C(O)c2cc(-c3ccncc3)sc2-c2nnc[nH]2)cc1OC (stereo not drawn) [Compound 246],81,8,15,43,–,–,–,–
CC(=O)Nc1cc(-c2cc(C(c3ccc(Cl)cc3)N3CC4(COC4)C3)c(-c3nnc[nH]3)s2)ccn1 (stereo not drawn) [Compound 247],105,21,83,104,–,–,–,–
CC(=O)Nc1cc(-c2cc(C(c3ccc(Cl)cc3)N3CCOCC3)c(-c3nnc[nH]3)s2)ccn1 (stereo not drawn) [Compound 248],106,35,89,109,–,–,–,–
Clc1ccc(C(c2cc(-c3ccnc(Cl)c3)sc2-c2nnc[nH]2)N2CCC2)cc1 (stereo not drawn) [Compound 251],96,12,14,44,–,–,–,–
OC(c1ccc(-c2ncccn2)cc1)c1cc(-c2ccncc2)sc1-c1nnc[nH]1 (stereo not drawn) [Compound 252],85,12,58,60,–,–,–,–
Nc1cc(-c2cc(C(c3ccc(Cl)cc3)N3CCNCC3)c(-c3nnc[nH]3)s2)ccn1 (stereo not drawn) [Compound 254],96,8,49,91,–,–,–,–
"NCc1c[nH]c(-c2sc(-c3ccncc3)nc2Cc2ccc(Cl)cc2)n1 [Compound 255, (2-(4-(4-chlorobenzyl)-2-(pyridin-4-yl)thiazol-5-yl)-1H-imidazol-4-yl)methanamine]",–,–,–,–,55,5,0,39
OC(c1ccc2c(c1)OCO2)c1cc(-c2ccncc2)sc1-c1nnc[nH]1 (stereo not drawn) [Compound 256],87,8,25,57,–,–,–,–
OC(c1ccc2ncccc2c1)c1cc(-c2ccncc2)sc1-c1nnc[nH]1 (stereo not drawn) [Compound 257],97,30,31,68,–,–,–,–
OC(c1cccc(-c2ccncc2)c1)c1cc(-c2ccncc2)sc1-c1nnc[nH]1 (stereo not drawn) [Compound 258],86,13,18,47,–,–,–,–
